In patent US4871727A, “Anti-inflammatory and antidegenerative compounds isolated from L-681,512” (Merck & Co, Inc., priority 1987, dated 1989):

Molecular target: T1, Human Polymorphonuclear Leukocyte Elastase (Homo sapiens, UniProt P08246)
T1 construct: Crude extract of human polymorphonuclear leukocytes (PMN) containing elastase activity; endogenous in cells; host or cells: human polymorphonuclear leukocytes (crude extract)
T1 sequence (P08246 30-247 limits assumed): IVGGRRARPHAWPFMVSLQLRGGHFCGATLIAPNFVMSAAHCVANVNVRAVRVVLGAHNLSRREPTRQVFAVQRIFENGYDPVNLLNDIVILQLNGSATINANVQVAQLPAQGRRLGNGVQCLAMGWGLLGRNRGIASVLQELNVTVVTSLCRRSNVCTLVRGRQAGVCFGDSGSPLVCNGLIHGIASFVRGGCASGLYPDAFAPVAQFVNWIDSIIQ
Assay: Inhibition of human polymorphonuclear leukocyte (PMN) elastase via hydrolysis of N-t-Boc-alanyl-alanyl-prolyl-alanine-p-nitroanilide (two point or "zero time" assay)
Type: biochemical
Details: 50% inhibition of the enzyme activity 2 minutes after zero time; crude human PMN extract; 0.2 mM Boc-AAPAN, pH 7.5, 410 nm; read-out: ED50 (the source's name) (converted)
Excerpt: It is generally understood that the enzyme of interest is that enzyme against which the inhibitory activity of the fermentation broth samples are being determined and quantified (e.g., PMN elastase). Consequently, all of the remaining wells are charged with the same enzyme of interest. However, several enzymes of interest can be charged to a plurality of wells, and the wells grouped together to facilitate separate identification and assay. When this is done, separate control wells must then also be prepared to correspond to the different enzymes of interest.
The chromogenic medium is charged to all the wells at substantially the same time and the time of this addition is noted. This is the "zero time" mentioned earlier as it is from that moment that a predetermined time lapse is measured during which sufficient reaction between the fermentation broth samples and the enzyme of interest occurs to enable not only accurate screening of enzyme inhibitory activity, but also the degree of that activity. Naturally, the predetermined time lapse will differ with different enzymes and can be from about 1 minute to about 20 minutes, typically from about 2 minutes to about 10 minutes.
The chromogenic media typically used are aromatic nitro- containing compounds. Illustrative of such compounds are Boc-ala-ala-pro-ala-p-nitroanilide, -α-benzoyl-DL-arginine-p-nitroanilide, N-α-benzoyl-L-tyrosine-p-nitroanilide, and the like.
Using the two point or "zero time" assay method described above, the following protocol was employed:
Enzyme Assays for the Inhibition of Human Polymorphonuclear Leukocyte Elastase Via Hydrolysis of N-t-Boc-alanyl-alanyl-prolylalanine-p-nitroanilide
0.05M TES (N-tris[hydroxymethyl]methyl-2-amino-ethanesulfonic acid) Buffer, pH 7.5.
0.2 mM N-t-Boc-alanyl-alanyl-prolyl-alanine-p-nitroanilide (Boc-AAPAN).
To prepare substrate, the solid (m.w. 550) was first dissolved in 10.1 ml DMSO. Buffer at pH 7.5 was then added to a final volume of 100 ml.
Crude extract of human polymorphonuclear leukocytes (PMN) containing elastase activity.
Inhibitors (cephalosporin sulfone esters) to be tested dissolved in DMSO just before use.
To 1.0 ml of 0.2 mM Boc-AAPAN in a cuvette, 0.01-0.1 ml of DMSO with or without inhibitor was added. After mixing, a measurement was taken at 410 nm to detect any spontaneous hydrolysis due to presence of test compound. 0.05 Milliliters of PMN extract was then added and the ΔOD/min at 410 nm was measured and recorded. A Beckman model 35 spectrophotometer was used.
Results were reported as ED50, i.e., effective dosage in micrograms per milliliter (μg/ml) for 50% inhibition of the enzyme activity 2 minutes after zero time.
The elastase activity in the crude PMN extract may vary from one preparation to another. A control of each new batch is run, and the volume added in the assay procedure is adjusted according to activity.

| SMILES | IC50 |
| --- | --- |
| C=C(CCC(C)[C@H]1CC=C2C3=C([C@@H](O)[C@H](OC(C)=O)C21C)C1(C)C[C@@H](O)[C@H](OS(=O)(=O)O)C(C)(C)[C@@H]1CC3)C(C)C (some centres unmarked) [Compound 1] | 2350 nM |
| C=C(CCC(C)[C@H]1CCC2C3=C([C@@H](O)[C@H](OC(C)=O)C21C)C1(C)C[C@@H](O)[C@H](OS(=O)(=O)O)C(C)(C)[C@@H]1CC3)C(C)C (some centres unmarked) [Compound 2] | 2510 nM |
| C=C(CCC(C)[C@H]1CC=C2C3=C([C@@H](O)[C@H](OC(C)=O)C21C)C1(C)C[C@@H](O)[C@H](O)C(C)(C)[C@@H]1CC3)C(C)C (some centres unmarked) [Compound 5] | 1750 nM |
| C=C(CCC(C)[C@H]1CC=C2C3=C([C@@H](OC(C)=O)[C@H](OC(C)=O)C21C)C1(C)C[C@@H](OC(C)=O)[C@H](OS(=O)(=O)O)C(C)(C)[C@@H]1CC3)C(C)C (some centres unmarked) [Compound 10] | 262000 nM |
| C=C(CCC(C)[C@H]1CC=C2C3=C([C@@H](O)[C@H](O)C21C)C1(C)C[C@@H](O)[C@H](OS(=O)(=O)O)C(C)(C)[C@@H]1CC3)C(C)C (some centres unmarked) [Compound 11] | 3440 nM |
